Experimental data taken from ChEMBL document CHEMBL3739361, “Design, facile synthesis and anthelmintic activity of new O-substituted 6-methoxybenzothiazole-2-carbamates” (2015).

Legend:
Format in all cases: functional
Paramphistomum [1] = assay: Antihelmintic activity against rumen flukes assessed as mortality at 40 ug/ml after 1 hr relative to control
Paramphistomum [2] = assay: Antihelmintic activity against rumen flukes assessed as mortality at 40 ug/ml after 2 hrs relative to control
Paramphistomum [3] = assay: Antihelmintic activity against rumen flukes assessed as mortality at 40 ug/ml after 4 hrs relative to control
Paramphistomum [4] = assay: Antihelmintic activity against rumen flukes assessed as mortality at 40 ug/ml after 6 hrs relative to control
Paramphistomum [5] = assay: Antihelmintic activity against rumen flukes assessed as mortality at 80 ug/ml after 1 hr relative to control
Paramphistomum [6] = assay: Antihelmintic activity against rumen flukes assessed as mortality at 80 ug/ml after 2 hrs relative to control
Paramphistomum [7] = assay: Antihelmintic activity against rumen flukes assessed as mortality at 80 ug/ml after 4 hrs relative to control
Paramphistomum [8] = assay: Antihelmintic activity against rumen flukes assessed as mortality at 80 ug/ml after 6 hrs relative to control

| Structure (SMILES) | mortality at 40 µg/mL (Paramphistomum [1]) [%] | mortality at 40 µg/mL (Paramphistomum [2]) [%] | mortality at 40 µg/mL (Paramphistomum [3]) [%] | mortality at 40 µg/mL (Paramphistomum [4]) [%] | mortality at 80 µg/mL (Paramphistomum [5]) [%] | mortality at 80 µg/mL (Paramphistomum [6]) [%] | mortality at 80 µg/mL (Paramphistomum [7]) [%] | mortality at 80 µg/mL (Paramphistomum [8]) [%] |
| --- | --- | --- | --- | --- | --- | --- | --- | --- |
| COC(=O)Nc1nc2ccc(OCC(=O)N/N=C(\C)c3ccc(C)cc3)cc2s1 (mixture of isomers) | 10 | 10 | 10 | 10 | 20 | 20 | 20 | 20 |
| CC(=O)Nc1nc2ccc(OCC3=NN(C(C)=O)C(c4ccc(Cl)cc4)O3)cc2s1 (stereo not given) | 20 | 40 | 50 | 60 | 20 | 50 | 80 | 100 |
| COC(=O)Nc1nc2ccc(OCC(=O)N/N=C/c3ccc([N+](=O)[O-])cc3)cc2s1 (mixture of isomers) | 10 | 10 | 10 | 10 | 20 | 20 | 20 | 20 |
| COC(=O)Nc1nc2ccc(OCC(=O)NNS(=O)(=O)c3ccccc3)cc2s1 | 10 | 10 | 20 | 30 | 20 | 30 | 40 | 50 |
| COC(=O)Nc1nc2ccc(OCC(=O)N/N=C/c3ccc(Cl)cc3)cc2s1 (mixture of isomers) | 0 | 0 | 10 | 20 | 20 | 30 | 50 | 60 |
| O=C(Nc1cc(Cl)cc(Cl)c1O)c1c(O)c(Cl)cc(Cl)c1Cl [OXYCLOZANIDE] | 30 | 70 | 100 | – | 50 | 100 | – | – |
| COC(=O)Nc1nc2ccc(OCC(=O)N/N=C/c3ccccc3OC(=O)OC)cc2s1 (mixture of isomers) | 10 | 10 | 10 | 10 | 10 | 20 | 20 | 20 |
| COC(=O)Nc1nc2ccc(OCC(=O)N/N=C(\C)c3ccc(Br)cc3)cc2s1 (mixture of isomers) | 10 | 10 | 10 | 10 | 20 | 20 | 30 | 30 |
| COC(=O)Nc1nc2ccc(OCC(=O)N/N=C/c3ccco3)cc2s1 | 10 | 20 | 30 | 40 | 30 | 40 | 60 | 70 |
| COC(=O)Nc1nc2ccc(OCC(=O)N/N=C/c3ccccc3)cc2s1 (mixture of isomers) | 10 | 10 | 10 | 20 | 10 | 20 | 20 | 40 |
| COC(=O)NNC(=O)COc1ccc2nc(NC(=O)OC)sc2c1 | 10 | 20 | 30 | 40 | 30 | 40 | 70 | 80 |
| CC(=O)Nc1nc2ccc(OCC3=NN(C(C)=O)C(c4ccccc4)O3)cc2s1 (stereo not given) | 0 | 0 | 0 | 0 | 0 | 0 | 10 | 10 |
| COC(=O)Nc1nc2ccc(OCC(=O)NNS(=O)(=O)c3ccc(C)cc3)cc2s1 | 10 | 10 | 20 | 30 | 20 | 20 | 30 | 40 |
| COC(=O)Nc1nc2ccc(OCC(=O)N/N=C(\C)c3ccc(Cl)cc3)cc2s1 (mixture of isomers) | 10 | 10 | 30 | 40 | 30 | 40 | 50 | 70 |
| CC(=O)Nc1nc2ccc(OCC3=NN(C(C)=O)C(c4ccc([N+](=O)[O-])cc4)O3)cc2s1 (stereo not given) | 10 | 30 | 40 | 70 | 20 | 50 | 70 | 100 |
| COC(=O)Nc1nc2ccc(OCC(=O)N/N=C(\C)c3ccccc3)cc2s1 (mixture of isomers) | 10 | 10 | 10 | 20 | 20 | 20 | 20 | 30 |
